{"source": "patent US20200306172A1", "about": "“DEPIGMENTING DERMATOLOGICAL AND COSMETIC COMPOSITIONS” (NUNII LABORATOIRE, priority 2017, published 2020)", "origin": "cited, not measured here", "key": {"[1]": {"settings": "pH 4 to pH 6"}, "[2]": {"settings": "powder raw material"}}, "note": "Read-outs that look alike come from different tables or passages of the source."}
{"molecule": "CCOC1=C(O)C(=O)O[C@@H]1[C@@H](O)CO", "note": "[3-O-ethyl-L-ascorbic acid]", "values": [{"measurement": "stability", "setting": "[1]", "result": "more stable than ascorbic acid and its other derivatives"}, {"measurement": "solubility", "setting": "[2]", "result": "soluble in water and alcohol"}]}
{"molecule": "NC(=O)c1cccnc1", "note": "[Niacinamide]", "values": [{"measurement": "solubility", "setting": "[2]", "result": "readily soluble in water, alcohol or glycerol"}]}
{"molecule": "Oc1ccc(/C=C/c2cc(O)cc(O)c2)cc1", "note": "[Trans-resveratrol]", "values": [{"measurement": "solubility", "setting": "[2]", "result": "soluble in polyethylene glycols and propylene glycols"}]}
{"molecule": "O=c1cc(CO)occ1O", "note": "[kojic acid]", "values": [{"measurement": "depigmenting activity", "setting": "kojic acid at 1%", "result": "no depigmenting activity"}, {"measurement": "depigmenting activity", "setting": "kojic acid at 4% dose", "result": "shows a depigmenting effect"}]}
{"molecule": "OCC1O[C@H](Oc2ccc(O)cc2)C(O)C(O)[C@@H]1O", "note": "(stereo partly drawn) [α-arbutin]", "values": [{"measurement": "solubility", "setting": "[2]", "result": "readily soluble in water"}]}
